In PubChem BioAssay AID624167 (Sanford-Burnham Center for Chemical Genomics, 2012):
The source made the active and inactive calls.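 How the source made its calls: active means mean IC50 for reducing PEG3 promoter reporter signal at or below a set limit, with IC50 above the limit in both counter screens; inactive means the rest, including counter screen hits.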

Assays:
PEG-3 [1] = assay: inhibition of PEG-3 promoter-driven reporter – cell-based, HeLa, luciferase, CREF/GAPDH counter-screen panel, dose response (AID 624167); conditions: HeLa PEG-Prom luciferase reporter, overnight, CREF/GAPDH counter-screens
PEG-3 [2] = target: PEG-3 (UniProt Q6IN02); assay: as above; conditions: HeLa PEG-Prom luciferase reporter, overnight, CREF/GAPDH counter-screens, mean of runs
Sequence of PEG-3 (UniProt Q6IN02) (Q6IN02 whole entry, looked up): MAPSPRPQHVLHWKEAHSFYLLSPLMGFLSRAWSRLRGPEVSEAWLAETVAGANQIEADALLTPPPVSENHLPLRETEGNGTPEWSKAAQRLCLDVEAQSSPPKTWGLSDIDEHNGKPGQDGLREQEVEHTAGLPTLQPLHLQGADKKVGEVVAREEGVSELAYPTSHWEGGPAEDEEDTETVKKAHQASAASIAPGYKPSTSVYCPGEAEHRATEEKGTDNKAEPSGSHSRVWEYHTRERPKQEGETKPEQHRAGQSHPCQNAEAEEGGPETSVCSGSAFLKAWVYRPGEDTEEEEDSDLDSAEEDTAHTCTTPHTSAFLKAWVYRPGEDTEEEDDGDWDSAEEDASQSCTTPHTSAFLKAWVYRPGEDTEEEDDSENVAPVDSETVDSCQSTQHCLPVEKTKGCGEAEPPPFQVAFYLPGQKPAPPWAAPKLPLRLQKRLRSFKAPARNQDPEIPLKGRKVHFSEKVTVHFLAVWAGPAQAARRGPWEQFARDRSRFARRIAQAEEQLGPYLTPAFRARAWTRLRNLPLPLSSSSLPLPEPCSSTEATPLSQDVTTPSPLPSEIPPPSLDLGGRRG

[3] = as above; conditions: CREF/GAPDH counter-screens; GAPDH; mean of runs
GAPDH = assay: as above; conditions: CREF/GAPDH counter-screens
Rat fibroblasts (CREF) = assay: as above; conditions: CREF/GAPDH counter-screens
[4] = run 1, dose range 1, individual replicate IC50 per panel
[5] = run 2, dose range 1, individual replicate IC50 per panel

Row | Compound | IC50 (PEG-3 [1]; [4]) [µM] | IC50 (PEG-3 [1]; [5]) [µM] | IC50 (PEG-3 [2]) | IC50 [3] | IC50 (GAPDH; [4]) [µM] | IC50 (GAPDH; [5]) [µM] | IC50 (Rat fibroblasts (CREF); mean of runs) | IC50 (Rat fibroblasts (CREF); [4]) [µM] | IC50 (Rat fibroblasts (CREF); [5]) [µM]
1 | COc1ccc(-n2c(O)c(/C=N/Nc3nc(C)cc(C)n3)c3ccccc3c2=O)cc1OC | 2.71 | 7.28 | 4.99 µM | > 100 µM (inactive) | > 100 | > 100 | 50.9 µM (inactive) | 44.5 | 57.3
2 | Cc1ccccc1CNC(=O)C1CCCN(c2nnc(C)c3c(C)n(-c4ccccc4)nc23)C1 (centres undefined) | 14.6 | 6.15 | 10.4 µM | inactive | 41.3 | 25.2 | 19.8 µM | 23.9 | 15.6
3 | C=C1CC2(OC1=O)c1ccccc1CCc1ccccc12 | 5.7 | 3.98 | 4.84 µM | 13.8 µM | 15.2 | 12.5 | 7.93 µM | 7.58 | 8.28
4 | CN(C)c1ccc(C=c2c3ccccc3n3c2cc(-c2ccccc2)[n+]3C)cc1 | 7.06 | 1.54 | 4.3 µM | 8.31 µM | 9.4 | 7.23 | 29.4 µM | 27.5 | 31.3
5 | CCCC(=O)NC(c1ccc(Cl)cc1)c1ccc2cccnc2c1O (centres undefined) | 2.29 | 4.28 | 3.29 µM | inactive | 27.5 | 58.5 | > 100 µM (inactive) | > 100 | > 100
6 | Cc1ccsc1/C=N/Nc1cccc(C(=O)O)c1 | 1.27 | 1.92 | 1.6 µM | 5.35 µM | 3.26 | 7.43 | > 100 µM (inactive) | > 100 | > 100
7 | O=C(O)c1ccc(N/N=C/c2ccc3nccnc3c2)cc1 | 1.26 | 1.36 | 1.31 µM | 1.38 µM | 1.36 | 1.41 | > 100 µM (inactive) | > 100 | > 100
8 | O=C(N/N=C\c1c(O)ccc2ccccc12)c1ccc(Cn2cccn2)o1 | 3.09 | 9.35 | 6.22 µM | > 100 µM (inactive) | > 100 | > 100 | > 100 µM (inactive) | > 100 | > 100
9 | O=C(O)c1ccc(CN2C(=O)c3cccc4c([N+](=O)[O-])ccc(c34)C2=O)cc1 | 12.1 | 8.2 | 10.1 µM | 22.7 µM | 21.9 | 23.4 | 31.5 µM | 29.5 | 33.4
10 | Cc1cccc(OCC(=O)NCC(=O)N/N=C/c2cc(Br)cc(Br)c2O)c1 | 9.95 | 5.87 | 7.91 µM | > 100 µM (inactive) | > 100 | > 100 | 47.1 µM | 42.2 | 52
11 | CC1=CC2/C=C(\C)CCC(O)C(O)/C=C/C(=O)C23C(=O)NC(CC(C)C)C3C1C (centres undefined) | 5.76 | 3.79 | 4.78 µM | 7.88 µM | 9.17 | 6.59 | 14.3 µM | 20.1 | 8.55
12 | O=C(N/N=C/c1sc(N2CCOCC2)nc1-c1ccccc1)c1cccc(S(=O)(=O)N2CCCC2)c1 | 5.9 | 5.05 | 5.47 µM | inactive | 18.9 | 42 | 54 µM (inactive) | > 100 | 8
13 | O=C(Nc1ccccc1C(=O)Nc1nnc(C(F)(F)F)s1)c1ccccc1 | 7.01 | > 100 | inactive | 7.97 µM | 2.28 | 13.7 | > 100 µM (inactive) | > 100 | > 100
14 | CCCCC(=O)NC(c1ccc(OC)cc1)c1ccc2cccnc2c1O (centres undefined) | 8.04 | 7.99 | 8.02 µM | > 100 µM (inactive) | > 100 | > 100 | > 100 µM (inactive) | > 100 | > 100
15 | CCCC(=O)NC(c1ccc(C(C)C)cc1)c1ccc2cccnc2c1O (centres undefined) | 1.94 | 0.814 | 1.38 µM | inactive | 26.2 | 85.1 | > 100 µM (inactive) | > 100 | > 100
16 | COc1ccccc1Nc1nc(-c2sc(NC(=O)c3ccco3)nc2C)cs1 | 7.41 | > 100 | inactive | > 100 µM (inactive) | > 100 | > 100 | > 100 µM (inactive) | > 100 | > 100

Row | Compound | IC50 (PEG-3 [1]; [4]) [µM] | IC50 (PEG-3 [1]; [5]) [µM] | IC50 (PEG-3 [2]) | IC50 [3] | IC50 (GAPDH; [4]) [µM] | IC50 (GAPDH; [5]) [µM] | IC50 (Rat fibroblasts (CREF); mean of runs) | IC50 (Rat fibroblasts (CREF); [4]) [µM] | IC50 (Rat fibroblasts (CREF); [5]) [µM]
17 | O=C(Nc1ccccc1)c1nc[nH]c1C(=O)NCCCCCCNC(=O)c1[nH]cnc1C(=O)Nc1ccccc1 | 2.4 | > 100 | inactive | inactive | > 100 | 16 | > 100 µM (inactive) | > 100 | > 100
18 | O=C(CNc1ccccc1)N/N=C/c1c(O)ccc2ccccc12 | 3.48 | > 100 | inactive | > 100 µM (inactive) | > 100 | > 100 | 51.1 µM (inactive) | 57.4 | 44.9
19 | C=CCc1cccc(/C=N/NC(=O)C(C)Nc2cccc(C)c2)c1O (centres undefined) | 12.2 | 1.89 | 7.04 µM | > 100 µM (inactive) | > 100 | > 100 | > 100 µM (inactive) | > 100 | > 100
20 | CCc1ccc(/C=C2\SC(=S)N(CCCC(=O)Nc3cc(C)on3)C2=O)cc1 | 3.86 | 3.05 | 3.46 µM | 9.14 µM | 7.4 | 10.9 | > 100 µM (inactive) | > 100 | > 100
21 | CC1=NOC(=O)/C1=C\c1ccc(-c2ccccc2Br)o1 | 11.3 | 10.1 | 10.7 µM | 18.3 µM | 16.9 | 19.7 | 50 µM | 24.6 | 75.3
22 | COc1cc(C(=O)N/N=C(\c2ccccc2)c2ccccn2)cc(OC)c1OC | 3.09 | 2.71 | 2.9 µM | > 100 µM (inactive) | > 100 | > 100 | 58.4 µM (inactive) | 44.9 | 72
23 | C=Cc1cc(OC)c2c(c1)c(=O)oc1c2cc(OC)c2c(O)ccc(C3OC(C)C(O)C(C)(O)C3O)c21 (centres undefined) | 2.17 | 2.96 | 2.56 µM | inactive | > 100 | 64.1 | > 100 µM (inactive) | > 100 | > 100
24 | O=C(N/N=C/c1c(O)ccc2ccccc12)c1ccc(CO)nc1 | 3.98 | 2.72 | 3.35 µM | > 100 µM (inactive) | > 100 | > 100 | 41.7 µM | 31 | 52.5
25 | CC1=CC2C(C(O)CC3(C)C2CC(C)C32OCOC23COCO3)C2(C)C/C(=C\O)C(=O)C=C12 (centres undefined) | 7.13 | 5.01 | 6.07 µM | 9.16 µM | 7.69 | 10.6 | 8.5 µM | 7.69 | 9.3
26 | COc1cccc2c1C(=O)c1c(O)c3c(c(O)c1C2=O)CC(O)(C(C)=NNC(=O)c1ccc(Cl)c(Cl)c1)CC3OC1CC(N)C(O)C(C)O1 (centres undefined) | 1.43 | 0.476 | 0.954 µM | 7.16 µM | 3.35 | 11 | 0.588 µM | 0.717 | 0.46
27 | COc1ccc(Nc2ncnc3ccc(Br)cc23)c(OC)c1 | 0.293 | 0.246 | 0.27 µM | 0.974 µM | 0.864 | 1.08 | > 100 µM (inactive) | > 100 | > 100
28 | CC(=O)c1ccc(-c2cnc3c(NC=O)cc(-c4ccccc4Oc4ccccc4)cn23)cc1 | 5.46 | 8.94 | 7.2 µM | inactive | 91.1 | > 100 | 54.5 µM (inactive) | > 100 | 8.93
29 | O=C(CCl)N1c2ccccc2Sc2ccc3ccccc3c21 | 12.2 | 5.18 | 8.68 µM | 25.1 µM | 26.7 | 23.4 | 26.3 µM | 24.5 | 28.1
30 | Cc1ccc(-n2c(N)c(C(=O)Nc3c(C)n(C)n(-c4ccccc4)c3=O)c3nc4ccccc4nc32)cc1 | 9.84 | 5.21 | 7.52 µM | 27.5 µM | 26.6 | 28.5 | 43.3 µM | 37.1 | 49.4
31 | Cc1ccc(NC(=S)NC(=O)c2ccc(F)cc2)cc1S(=O)(=O)Nc1ccccc1Cl | 4.15 | 3.56 | 3.86 µM | inactive | 44.2 | 41 | 50.7 µM (inactive) | > 100 | 1.35
